Measurements as given in paper PMC2997436 (Journal of medicinal chemistry, 2010).
Read-outs that look alike come from different tables or passages of the source.

What was measured:
rat α4β2 nAChR = rat α4β2 nAChR (Rattus norvegicus, UniProt P09483+P12390); format: binding
rat α3β4 nAChR = rat α3β4 nAChR (Rattus norvegicus, UniProt P04757+P12392); format: binding
α3β4 nAChR [1] = biological target: T1, α3β4 nAChR (Rattus norvegicus, UniProt P04757+P12392); format: cell-based
α3β4 nAChR [2] = biological target: T1, α3β4 nAChR; settings: change in both Kd and Bmax of [3H]epibatidine
α7 nAChR = α7 nAChR (Rattus norvegicus, UniProt Q05941); assay: biochemical; format: binding
α4β2 nAChR = α4β2 nAChR (Rattus norvegicus, UniProt P09483+P12390); assay: Functional assay; format: cell-based
[3] = FLIPR, alone and against epibatidine-induced Ca2+ fluorescence

rat α4β2 nAChR, sequence (P09483 31-630): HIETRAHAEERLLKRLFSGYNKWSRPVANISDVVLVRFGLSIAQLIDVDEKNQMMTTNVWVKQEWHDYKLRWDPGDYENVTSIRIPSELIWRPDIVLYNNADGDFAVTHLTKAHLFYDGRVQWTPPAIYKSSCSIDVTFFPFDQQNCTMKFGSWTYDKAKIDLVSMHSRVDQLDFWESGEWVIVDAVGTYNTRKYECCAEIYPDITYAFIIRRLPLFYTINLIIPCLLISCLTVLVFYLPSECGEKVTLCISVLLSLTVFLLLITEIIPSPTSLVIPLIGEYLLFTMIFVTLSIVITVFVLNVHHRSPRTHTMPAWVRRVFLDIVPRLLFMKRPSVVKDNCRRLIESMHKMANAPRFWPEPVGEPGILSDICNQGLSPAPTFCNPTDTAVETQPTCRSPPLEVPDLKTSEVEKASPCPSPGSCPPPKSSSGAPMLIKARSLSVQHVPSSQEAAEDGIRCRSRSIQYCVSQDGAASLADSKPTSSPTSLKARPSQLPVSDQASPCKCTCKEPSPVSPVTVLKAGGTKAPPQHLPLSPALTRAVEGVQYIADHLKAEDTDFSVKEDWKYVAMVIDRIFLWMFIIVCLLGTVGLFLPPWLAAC
rat α4β2 nAChR, sequence (P12390 25-500): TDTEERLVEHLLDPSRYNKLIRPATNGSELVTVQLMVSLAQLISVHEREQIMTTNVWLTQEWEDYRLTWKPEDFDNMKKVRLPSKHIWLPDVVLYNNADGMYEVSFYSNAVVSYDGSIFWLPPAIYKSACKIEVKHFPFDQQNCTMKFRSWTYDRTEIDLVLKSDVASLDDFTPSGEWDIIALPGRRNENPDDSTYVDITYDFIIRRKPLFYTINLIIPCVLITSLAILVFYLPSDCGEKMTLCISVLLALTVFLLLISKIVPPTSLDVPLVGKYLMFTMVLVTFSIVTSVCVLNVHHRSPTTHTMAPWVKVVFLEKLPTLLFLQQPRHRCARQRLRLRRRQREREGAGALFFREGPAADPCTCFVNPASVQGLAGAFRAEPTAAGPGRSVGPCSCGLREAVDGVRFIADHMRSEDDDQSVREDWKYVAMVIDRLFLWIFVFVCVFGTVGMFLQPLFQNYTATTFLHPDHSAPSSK
T1 sequence (P12392 22-495): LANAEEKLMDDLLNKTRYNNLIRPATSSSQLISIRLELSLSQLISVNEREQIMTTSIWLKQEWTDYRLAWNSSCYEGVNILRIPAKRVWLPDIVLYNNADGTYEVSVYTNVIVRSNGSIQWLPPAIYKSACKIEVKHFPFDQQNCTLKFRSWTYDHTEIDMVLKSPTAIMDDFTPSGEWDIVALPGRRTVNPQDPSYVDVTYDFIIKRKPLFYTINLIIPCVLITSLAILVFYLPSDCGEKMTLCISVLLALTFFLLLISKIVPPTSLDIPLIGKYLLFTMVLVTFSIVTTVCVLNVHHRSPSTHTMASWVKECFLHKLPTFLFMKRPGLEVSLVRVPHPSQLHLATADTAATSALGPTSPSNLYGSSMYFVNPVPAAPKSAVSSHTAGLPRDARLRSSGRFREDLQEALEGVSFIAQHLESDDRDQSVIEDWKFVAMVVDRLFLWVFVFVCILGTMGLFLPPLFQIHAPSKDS
T1 sequence (P04757 26-499): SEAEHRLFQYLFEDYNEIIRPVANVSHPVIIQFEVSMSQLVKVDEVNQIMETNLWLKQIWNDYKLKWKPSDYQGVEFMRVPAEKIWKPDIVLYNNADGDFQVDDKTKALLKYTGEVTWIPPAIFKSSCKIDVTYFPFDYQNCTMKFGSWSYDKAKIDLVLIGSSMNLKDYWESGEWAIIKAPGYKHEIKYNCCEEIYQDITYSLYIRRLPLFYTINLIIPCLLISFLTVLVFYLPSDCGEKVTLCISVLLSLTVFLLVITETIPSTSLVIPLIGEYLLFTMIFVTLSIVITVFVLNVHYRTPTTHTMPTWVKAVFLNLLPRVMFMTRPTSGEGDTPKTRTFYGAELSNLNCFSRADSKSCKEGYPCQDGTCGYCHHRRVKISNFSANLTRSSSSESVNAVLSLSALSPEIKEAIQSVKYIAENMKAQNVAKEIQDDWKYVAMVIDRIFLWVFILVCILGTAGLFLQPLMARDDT
rat α3β4 nAChR, sequence (P04757 26-499): as above
rat α3β4 nAChR, sequence (P12392 22-495 limits assumed): as the sequence (P12392 22-495) above
α7 nAChR, sequence (Q05941 23-502): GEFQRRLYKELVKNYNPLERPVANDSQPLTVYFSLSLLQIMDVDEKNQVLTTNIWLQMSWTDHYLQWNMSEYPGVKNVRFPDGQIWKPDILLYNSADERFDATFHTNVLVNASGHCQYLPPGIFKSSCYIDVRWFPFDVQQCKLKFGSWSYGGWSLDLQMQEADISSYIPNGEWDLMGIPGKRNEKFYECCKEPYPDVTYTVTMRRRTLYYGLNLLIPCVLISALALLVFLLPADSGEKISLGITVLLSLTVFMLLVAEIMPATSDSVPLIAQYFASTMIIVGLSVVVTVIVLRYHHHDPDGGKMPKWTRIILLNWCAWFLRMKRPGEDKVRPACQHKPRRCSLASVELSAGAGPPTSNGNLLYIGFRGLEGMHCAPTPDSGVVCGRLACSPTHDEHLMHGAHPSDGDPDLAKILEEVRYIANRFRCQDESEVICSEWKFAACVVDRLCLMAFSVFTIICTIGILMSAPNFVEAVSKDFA
α4β2 nAChR, sequence (P09483 31-630): as the sequence (P09483 31-630) above
α4β2 nAChR, sequence (P12390 25-500): as the sequence (P12390 25-500) above

Q: Which results are given for `CCOC(=O)N1C2C=C(c3cccnc3)CC1CCC2` (stereo not drawn) [Compound 7]?
A: binding affinity at α4β2 nAChR (in words) (rat α4β2 nAChR): complete loss of binding affinity; binding affinity at α3β4 nAChR (in words) (rat α3β4 nAChR): complete loss of binding affinity

Q: With `Clc1ccc(C2CC3CCC2N3)cn1` (stereo not drawn) [Epibatidine, reference compound] as the compound, how does the “increase in intracellular Ca2+-induced fluorescence” value (α3β4 nAChR [1]) read?
A: 1000 fold

Q: Which “mode of binding with epibatidine at α3β4” value (α3β4 nAChR [2]) does the source give for `O=c1cccc2n1C[C@@H]1CNC[C@H]2C1` [Cytisine] here?
A: noncompetitively

Q: Which Ki (α7 nAChR) does the source give for `C1=C(c2cccnc2)CC2CC1CN2Cc1ccccc1` (stereo not drawn) [Compound 10, 6-benzyl-3-(pyridin-3-yl)-6-azabicyclo[3.2.1]oct-2-ene] here?
A: 424 nM

Q: And the “functional activity at α4β2 nAChR (in words)” value (α4β2 nAChR)?
A: partial agonist

Q: And the “functional activity at α3β4 nAChR (in words)” value (α3β4 nAChR [1])?
A: partial agonist

Q: What about the “selectivity for α4β2 over α3β4 receptors” value (rat α4β2 nAChR) of the same compound?
A: about 100 fold

Q: What about the “selectivity for α4β2 over α7 nAChR” value (rat α4β2 nAChR) of the same compound?
A: greater than 200 fold

Q: And the Ki (rat α4β2 nAChR; binding affinity (Ki) α4β2)?
A: 1.95 ± 0.18 nM

Q: And the Ki (rat α3β4 nAChR)?
A: 170 ± 47.9 nM

Q: Which “functional activity at α3β4 nAChR (in words)” value (α3β4 nAChR [1]; [3]) does the source give for `CN1C2C=C(c3cccnc3)CC1CCC2` (stereo not drawn) [Compound 8, 9-methyl-3-(pyridin-3-yl)-9-azabicyclo[3.3.1]non-2-ene] here?
A: partial agonist activity

Q: `O=C1Cc2ccccc2N1C1CC2CCCC(C1)N2` (stereo not drawn) [Compound 6] was tested. Which “functional activity at α3β4 nAChR (in words)” value (α3β4 nAChR [1]; [3]) did it give?
A: antagonists

Q: What about the “potency in reversing epibatidine-induced Ca2+ fluorescence” value (α3β4 nAChR [1]; FLIPR, α3β4 HEK cells) of the same compound?
A: micromolar range

Q: `O=C1Cc2ccccc2N1C1CC2CC(C1)N(Cc1ccccc1)C2` (stereo not drawn) [Compound 12] was tested. Which “binding affinity at α4β2 nAChR (in words)” value (rat α4β2 nAChR) did it give?
A: completely abolished affinity
